US20140295402A1, “METHODS AND MATERIALS FOR PROLONGING USEFUL STORAGE OF RED BLOOD CELL PREPARATIONS AND PLATELET PREPARATIONS” (priority 2011, published 2014)

What was measured:
[1] = tested on: red blood cell preparation; experiment: Storage of red blood cell preparations in blood bags with CO2: pCO2, lactate, glucose and pH levels; type: cell-based; conditions: for Glucose / Lactate: red blood cell preparation
Procedure: Red blood cells were collected and processed using standard techniques and stored in standard blood bags. Prior to collecting the red blood cells, an empty blood bag containing anti-coagulated citrate phosphate dextrose with adenine (AS1) was flushed with CO2 for one minute. The collection bag was then filled with blood from a donor. Next, 50 cubic centimeters of CO2 were added to the bag via the sterile docking port. The bag was gently inverted for 30 seconds and then placed upright. Using an empty syringe, the 50 cubic centimeters of air/CO2 was removed from the bag through the sterile docking port. The controls were red blood cell preparations placed in blood bags not flushed with CO2 and not exposed to 50 cubic centimeters of CO2.
The control and CO2 treated red blood cell preparations were tested for pCO2 (or pO2) levels, lactate levels, glucose levels, and pH levels at days 0, 14, and 21 (Table 1). […] This fall in pH is reversible, and pH levels can return to normal values of […] when normal pCO2 levels (e.g., 40-60 mmHg) are re-established.

[2] = tested on: platelets in platelet-rich plasma (PRP); experiment: Platelet aggregation of PRP by optical aggregometry after equilibration with 99% CO2; type: cell-based, human
Procedure: Fresh human whole blood was drawn into 3.2% sodium citrate, and platelet-rich plasma (PRP) was prepared. Control citrated PRP was stored at room temperature in a polypropylene tube. CO2 was exposed to the air/fluid interface of PRP using a 99.9% CO2 tank. CO2 was administered for approximately 60 seconds during which time the pH dropped from an average value of 7.4 to 6.4.
Using a Chronolog 700 platelet aggregometer, platelet aggregation was performed pre- and post-CO2 to ADP, AA, and Epi. Platelet aggregometry was carried out as described elsewhere (Born and Cross, J. Physiol., 168:178-195 (1963)). The assay was performed at 37° C. with a sample stir speed of 1200 r.p.m. Each sample consisted of 450 μL platelet rich plasma.
In another study, the impact of CO2 on platelet function was explored by equilibrating platelet-rich plasma (PRP) with 99% CO2. The PRP was prepared by low-speed centrifugation of blood anticoagulated with 3.2% sodium citrate and kept in capped polypropylene tubes. Platelet function was measured by optical aggregometry with ADP and epinephrine as triggers. Equilibration with CO2 under a positive flow of gas was monitored by the fall in pH from 7.2 to 6.4, which typically occurs within 60 seconds. Degassing of CO2 by a flow of room air over the PRP was verified by the return to pH 7.2. Immediately after removal of the PRP from the CO2 atmosphere, aggregation to ADP and epinephrine was suppressed (FIG. 18, first set). When the samples had returned to pH 7.2, aggregation to both triggers was restored (FIG. 18, center set).

platelets = experiment: ATP secretion of platelets induced with 1 μM thrombin (Zylux luminometer); type: cell-based, human; conditions: after 24 hours storage at room temperature
Procedure: ATP secretion was performed using a Zylux luminometer where the secretion was induced using 1 μM thrombin. […] However, the CO2 treated platelets had approximately 80% of baseline secretion after 24 hours storage.

Bacillus cereus [3] = experiment: Bacterial growth in spiked PRP, quantitative culture after 30 hours; type: cell-based; conditions: PRP spiked with 10 CFU, approximately 30 hours at room temperature
Procedure: (§1) Clinical isolates of Bacillus cereus and Pseudomonas aeruginosa were spiked into control and CO2 treated platelets at a concentration of 10 CFU (i.e., 10 bacteria total, not 10 CFU/mL). The platelets were stored for approximately 30 hours at room temperature on a platelet agitator. After 30 hours, quantitative culture was performed on serial dilutions of the platelet sample on 5% sheep blood agar plates.

Pseudomonas aeruginosa = experiment: as above; type: cell-based; conditions: PRP spiked with 10 CFU, approximately 30 hours at room temperature
Procedure: as §1

Bacillus cereus [4] = experiment: Bacterial growth in inoculated apheresis platelet unit, quantitative culture; type: cell-based; conditions: platelets exposed to 99% CO2 for 10 minutes
Procedure: (§2) Outdated apheresis platelet unit (day 6) was obtained from the Mayo Clinic components laboratory. About half of the platelet unit was perfused with 99% CO2 gas for 10 minutes with mixing. Control samples without CO2 exposure and CO2-treated samples of 10 mL volume were inoculated with clinical isolates of eight different organisms. Control and CO2 samples were spiked with identical bacterial loads. Quantitative culture using 5% sheep blood agar plates was conducted immediately following inoculation (0 hours) and at 24 and 48 hour time points. Time 0 hour inoculation load was selected to compensate for observed “spike and die” in outdated apheresis platelet units. The time 0 hour value represented the value of the initial spike.

Corynebacterium = experiment: as above; type: cell-based; conditions: platelets exposed to 99% CO2 for 10 minutes
Procedure: as §2

E. coli = experiment: as above; type: cell-based; conditions: platelets exposed to 99% CO2 for 10 minutes
Procedure: as §2

Enterobacter cloacae = experiment: as above; type: cell-based; conditions: platelets exposed to 99% CO2 for 10 minutes
Procedure: as §2

Klebsiella oxytoca = experiment: as above; type: cell-based; conditions: platelets exposed to 99% CO2 for 10 minutes
Procedure: as §2

S. aureus = experiment: as above; type: cell-based; conditions: platelets exposed to 99% CO2 for 10 minutes
Procedure: as §2

S. epidermidis = experiment: as above; type: cell-based; conditions: platelets exposed to 99% CO2 for 10 minutes
Procedure: as §2

S. pyogenes = experiment: as above; type: cell-based; conditions: platelets exposed to 99% CO2 for 10 minutes
Procedure: as §2

[5] = storage with CO2, compared to controls

O=C=O [CO2]
Glucose ([1]; day 0 of storage): 571 mg/dL
Lactate ([1]; day 0 of storage): 1.2 µmol/mL
Glucose ([1]; day 14 of storage): 503 mg/dL
Lactate ([1]; day 14 of storage): 5 µmol/mL
Glucose ([1]; day 21 of storage): 478 mg/dL
Lactate ([1]; day 21 of storage): 5.3 µmol/mL
glucose consumption [1, 5]: inhibition
lactate formation [1, 5]: inhibition
aggregation ([2]; after 24 hours under CO2): equivalent to that of controls
aggregation to ADP and epinephrine ([2]; after samples had returned to pH 7.2): restored
aggregation to ADP and epinephrine ([2]; immediately after removal of the PRP from the CO2 atmosphere): suppressed
ATP secretion, of baseline (platelets): approximately 80%
bacterial growth (Bacillus cereus [3]): no growth
bacterial growth (Pseudomonas aeruginosa): no growth
bacterial growth (Bacillus cereus [4]; 0 hours (initial spike)): 1.00E+01 CFU/mL
bacterial growth (Bacillus cereus [4]; 24 hours): no
bacterial growth (Bacillus cereus [4]; 48 hours): no
bacterial growth (Corynebacterium; 0 hours (initial spike)): 7.90E+02 CFU/mL
bacterial growth (Corynebacterium; 24 hours): 2.70E+02 CFU/mL
bacterial growth (Corynebacterium; 48 hours): 4.20E+02 CFU/mL
bacterial growth (E. coli; 24 hours): 1.80E+02 CFU/mL
bacterial growth (E. coli; 48 hours): 5.20E+03 CFU/mL
bacterial growth (Enterobacter cloacae; 0 hours (initial spike)): 1.22E+03 CFU/mL
bacterial growth (Enterobacter cloacae; 24 hours): 1.20E+06 CFU/mL
bacterial growth (Enterobacter cloacae; 48 hours): 8.60E+07 CFU/mL
bacterial growth (Klebsiella oxytoca; 0 hours (initial spike)): 8.10E+02 CFU/mL
bacterial growth (Klebsiella oxytoca; 24 hours): 1.15E+04 CFU/mL
bacterial growth (Klebsiella oxytoca; 48 hours): 4.30E+05 CFU/mL
bacterial growth (S. aureus; 0 hours (initial spike)): 1.17E+03 CFU/mL
bacterial growth (S. aureus; 24 hours): 3.20E+03 CFU/mL
bacterial growth (S. aureus; 48 hours): 2.70E+04 CFU/mL
bacterial growth (S. epidermidis; 0 hours (initial spike)): 6.10E+02 CFU/mL
bacterial growth (S. epidermidis; 24 hours): 3.30E+02 CFU/mL
bacterial growth (S. epidermidis; 48 hours): 4.20E+02 CFU/mL
bacterial growth (S. pyogenes; 0 hours (initial spike)): 1.55E+03 CFU/mL
bacterial growth (S. pyogenes; 24 hours): 1.20E+05 CFU/mL
bacterial growth (S. pyogenes; 48 hours): 8.00E+07 CFU/mL
